Assay results as given in US20170275287A1, “NOVEL N2, N4, N7, 6-TETRASUBSTITUTED PTERIDINE-2,4,7-TRIAMINE AND 2, 4, 6, 7-TETRASUBSTITUTED PTERIDINE COMPOUNDS AND METHODS OF SYNTHESIS AND USE THEREOF” (Janus Biotherapeutics, Inc., priority 2014, published 2017).
In brackets after ≈: the same amount, converted by molar mass. Where two headings read alike, the source gives them in different places.

Legend:
P-glycoprotein = biological target: T1, P-glycoprotein (Homo sapiens, UniProt P08183); assay: P-glycoprotein inhibition (CEREP); assay type: in vitro ADME
T1 construct: CEREP (contract laboratory)
T1 sequence (P08183 whole entry): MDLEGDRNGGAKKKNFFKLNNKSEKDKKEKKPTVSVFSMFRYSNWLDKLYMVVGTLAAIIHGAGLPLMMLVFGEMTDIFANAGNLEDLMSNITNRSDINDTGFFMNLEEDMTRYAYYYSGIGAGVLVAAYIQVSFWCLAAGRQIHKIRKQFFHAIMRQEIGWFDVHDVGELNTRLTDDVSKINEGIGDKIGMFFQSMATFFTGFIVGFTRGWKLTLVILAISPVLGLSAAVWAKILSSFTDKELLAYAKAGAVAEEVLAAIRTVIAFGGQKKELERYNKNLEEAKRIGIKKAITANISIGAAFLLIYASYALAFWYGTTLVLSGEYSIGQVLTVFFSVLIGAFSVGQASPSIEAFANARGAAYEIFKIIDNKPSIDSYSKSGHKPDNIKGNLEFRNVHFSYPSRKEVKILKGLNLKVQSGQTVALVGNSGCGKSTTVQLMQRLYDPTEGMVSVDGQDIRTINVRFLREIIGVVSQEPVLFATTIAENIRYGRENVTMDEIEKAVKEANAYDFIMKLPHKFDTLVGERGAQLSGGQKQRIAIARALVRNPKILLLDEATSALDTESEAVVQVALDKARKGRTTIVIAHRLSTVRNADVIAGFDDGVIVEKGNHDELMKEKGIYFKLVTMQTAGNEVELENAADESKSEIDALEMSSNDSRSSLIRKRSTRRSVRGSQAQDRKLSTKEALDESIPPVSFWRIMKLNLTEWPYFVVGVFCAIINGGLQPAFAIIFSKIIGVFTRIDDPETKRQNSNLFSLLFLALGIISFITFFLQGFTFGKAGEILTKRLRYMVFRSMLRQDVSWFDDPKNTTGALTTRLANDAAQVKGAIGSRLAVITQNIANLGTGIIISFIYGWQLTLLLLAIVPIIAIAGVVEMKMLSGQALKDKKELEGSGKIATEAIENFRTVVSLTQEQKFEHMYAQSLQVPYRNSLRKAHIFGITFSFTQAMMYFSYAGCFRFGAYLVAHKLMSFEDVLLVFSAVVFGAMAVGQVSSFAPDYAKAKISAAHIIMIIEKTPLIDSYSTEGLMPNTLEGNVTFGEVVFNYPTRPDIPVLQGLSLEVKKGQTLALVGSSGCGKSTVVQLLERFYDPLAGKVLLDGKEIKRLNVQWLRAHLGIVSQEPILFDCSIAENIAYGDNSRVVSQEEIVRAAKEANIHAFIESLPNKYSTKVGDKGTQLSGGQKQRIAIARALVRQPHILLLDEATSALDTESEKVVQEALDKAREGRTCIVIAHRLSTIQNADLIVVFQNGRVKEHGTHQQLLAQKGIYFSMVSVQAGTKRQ
Protocol: (§1) Preliminary screening measures were conducted by CEREP. All values fall within acceptable limits (Table 5). Solubility assays where performed by CEREP, Seattle, Wash., according to Lipinski, C. A. et al., 1997, Adv. Drug Del. Rev., 46:3-26. Protein binding assays where performed by CEREP, Seattle, Wash., according to Banker, M. J. et al., 2003, J. Pharm. Sci., 92:967-974. Permeability assays where performed by CEREP, Seattle, Wash. according to Hildalgo, I. J., 1998, Gastroenterology, 96:736-749. Metabolic stability assays where performed by CEREP, Seattle, Wash., according to Obach, R. S. et al., 1997, J. Pharmacol. Exp. Ther., 283:46-58. P-glycoprotein inhibition assays where performed by CEREP, Seattle, Wash., according to Polli, J. W. et al., 2001, J. Pharm. Exp. Ther., 299:620-628. Cell viability assays where performed by CEREP, Seattle, Wash., according to Mosmann, T., 1983, J. Immunol. Met. 65:55-62. hERG automated patch clamp assays where performed by CEREP, Seattle, Wash., according to Mathes, C., 2006, Expert Opin. Ther. Targets, 10:230-241.

[1] = Aqueous solubility (CEREP); assay type: physicochemical
Protocol: as §1

[2] = PK/PD study: whole blood JB6121 after 7 days oral dosing; assay type: in vivo, Sprague-Dawley rats; details: for AUC(0-t)/D / Cmax/D / AUC(0-t) / Cmax / Tmax / AUC / half-life: Day 7; for AUC(0-t) / Cmax / Tmax / concentration at 2 h / concentration at 3 h / concentration at 4 h / concentration at 5 h / AUC / half-life: Sprague-Dawley, rat, whole blood; for concentration at 2 h: Day 7, 2 h; for concentration at 3 h: Day 7, 3 h; for concentration at 4 h: Day 7, 4 h; for concentration at 5 h: Day 7, 5 h; for AUC: read-out: AUC Extrap; for half-life: read-out: t½ (converted)
Protocol: The objective of this study was to collect serum following ODN CpG 1668 administration and to determine the pharmacokinetics of JB6121 following oral administration to Sprague-Dawley rats for 7 days. There was a pre-test to establish the appropriate agonist dose for a TLR9 ligand, CpG DNA ODN 1668, in rats using serum IL-12 as the monitored cytokine, groups 1-3, see table 6. Whole blood samples for serum were collected terminally from each animal 3 hours following dosing with ODN CpG 1668. Serum IL-12 was determined by ELISA, data not shown. An agonist dose of lmg/kg was selected for the next phase of the study. For groups administered JB6121 (Groups 4-7), formulations were corrected for base/salt components and not corrected for purity. On the initial day of dose administration, JB6121 formulations were prepared using sterile PBS to the adjusted target dosing concentrations using a factor of 0.8265 to correct for salt content. Dosing was performed as outlined in the following Table 9.
Animals were assigned to four groups (groups 4-7) and administered JB6121 at 0.39, 1.56, 6.25, or 25 mg/kg in a volume of […] once per day by oral gavage for 7 days. On Day 7, two hours following the JB6121 dose (approximate Cmax), ODN CpG 1668 was administered as a single IP dose at 1 mg/kg in a volume of 1 mL/kg. Whole blood samples for bioanalysis and serum samples for serum cytokine analysis were collected by tail vein bleeding or terminally by cardiac puncture at t=2, 3, 4 and 5 h.

CN1CCN(c2nc(NCCN3CCOCC3)c3nc(Cl)c(NCCN4CCOCC4)nc3n2)CC1 [JB6121, 6-chloro-2-(4-methylpiperazin-1-yl)-N^4,N^7-bis(2-morpholinoethyl)pteridine-4,7-diamine]
inhibition at 100 µM (P-glycoprotein): 1% | solubility ([1]; PBS, pH 7.4, aqueous buffer, read-out: Aqueous Solubility, PBS, pH 7.4): > 200 µM | solubility ([1]; simulated gastric fluid, read-out: Aqueous Solubility, simulated Gastric Fluid): > 200 µM | solubility ([1]; simulated intestinal fluid, fassgf or other biorelevant, read-out: Aqueous Solubility, simulated Intestinal Fluid): 195 µM (≈ 102 µg/mL) | AUC(0-t)/D ([2]; 0.39 mg/kg PO daily x7 days): 24.8 ng · h/mL/mg/kg/day | Cmax/D ([2]; 0.39 mg/kg PO daily x7 days): 13.4 ng/mL/mg/kg/day | AUC(0-t)/D ([2]; 1.56 mg/kg PO daily x7 days): 13.6 ng · h/mL/mg/kg/day | Cmax/D ([2]; 1.56 mg/kg PO daily x7 days): 6.96 ng/mL/mg/kg/day | AUC(0-t)/D ([2]; 6.25 mg/kg PO daily x7 days): 34.8 ng · h/mL/mg/kg/day | Cmax/D ([2]; 6.25 mg/kg PO daily x7 days): 15.2 ng/mL/mg/kg/day | AUC(0-t)/D ([2]; 25 mg/kg PO daily x7 days): 63 ng · h/mL/mg/kg/day | Cmax/D ([2]; 25 mg/kg PO daily x7 days): 28.4 ng/mL/mg/kg/day | AUC(0-t) ([2]; 0.39 mg/kg PO daily x7 days): 9.68 ng·h/mL | Cmax ([2]; 0.39 mg/kg PO daily x7 days): 5.24 ng/mL | Tmax ([2]; 0.39 mg/kg PO daily x7 days): 3.8 h | concentration at 2 h ([2]; 0.39 mg/kg PO daily x7 days): 2.5 ng/mL | concentration at 3 h ([2]; 0.39 mg/kg PO daily x7 days): 3.88 ng/mL | concentration at 4 h ([2]; 0.39 mg/kg PO daily x7 days): 5.57 ng/mL | concentration at 5 h ([2]; 0.39 mg/kg PO daily x7 days): 6.47 ng/mL | AUC ([2]; 0.39 mg/kg PO daily x7 days): 133 ng·h/mL | half-life ([2]; 0.39 mg/kg PO daily x7 days): 8.75 h | AUC(0-t) ([2]; 1.56 mg/kg PO daily x7 days): 21.3 ng·h/mL | Cmax ([2]; 1.56 mg/kg PO daily x7 days): 10.9 ng/mL | Tmax ([2]; 1.56 mg/kg PO daily x7 days): 4 h | concentration at 2 h ([2]; 1.56 mg/kg PO daily x7 days): 3.93 ng/mL | concentration at 3 h ([2]; 1.56 mg/kg PO daily x7 days): 8.2 ng/mL | concentration at 4 h ([2]; 1.56 mg/kg PO daily x7 days): 7.8 ng/mL | concentration at 5 h ([2]; 1.56 mg/kg PO daily x7 days): 7.76 ng/mL | AUC ([2]; 1.56 mg/kg PO daily x7 days): 231 ng·h/mL | half-life ([2]; 1.56 mg/kg PO daily x7 days): 21.2 h | AUC(0-t) ([2]; 6.25 mg/kg PO daily x7 days): 217 ng·h/mL | Cmax ([2]; 6.25 mg/kg PO daily x7 days): 95 ng/mL | Tmax ([2]; 6.25 mg/kg PO daily x7 days): 3.2 h | concentration at 2 h ([2]; 6.25 mg/kg PO daily x7 days): 27 ng/mL | concentration at 3 h ([2]; 6.25 mg/kg PO daily x7 days): 94.8 ng/mL | concentration at 4 h ([2]; 6.25 mg/kg PO daily x7 days): 77.8 ng/mL | concentration at 5 h ([2]; 6.25 mg/kg PO daily x7 days): 63.8 ng/mL | AUC ([2]; 6.25 mg/kg PO daily x7 days): 609 ng·h/mL | half-life ([2]; 6.25 mg/kg PO daily x7 days): 4.09 h | AUC(0-t) ([2]; 25 mg/kg PO daily x7 days): 1570 ng·h/mL | Cmax ([2]; 25 mg/kg PO daily x7 days): 711 ng/mL | Tmax ([2]; 25 mg/kg PO daily x7 days): 3 h | concentration at 2 h ([2]; 25 mg/kg PO daily x7 days): 401 ng/mL | concentration at 3 h ([2]; 25 mg/kg PO daily x7 days): 711 ng/mL | concentration at 4 h ([2]; 25 mg/kg PO daily x7 days): 487 ng/mL | concentration at 5 h ([2]; 25 mg/kg PO daily x7 days): 366 ng/mL | AUC ([2]; 25 mg/kg PO daily x7 days): 2770 ng·h/mL | half-life ([2]; 25 mg/kg PO daily x7 days): 2.2 h
